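In this assay, cells in 96-well plates receive the compound at five concentrations for 48 hours. Endpoints are linearly interpolated between the surrounding concentrations. Here, GI50 denotes the concentration required for 50% inhibition of growth. Definition used: TGI = concentration required for complete inhibition of growth.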

The text below walks through data of PubChem BioAssay (NCI).

For this experiment, the system named is MDA-MB-468 breast. The experiment can be described thus: DTP human tumour cell line panel, 48 h.
Consider `COc1cc(/C=C/c2cc(/C=C/c3ccc(O)c(OC)c3)n(C(=O)Nc3ccc(F)c(Cl)c3)n2)ccc1O`, for which the GI50 (commonly the concentration that inhibits growth by half) is 0.266 µM and the TGI (in general, the concentration at which net growth stops) is 0.829 µM.

In the case of `CCCCC(O)(c1ccc(Cl)cc1)C(CN1CCOCC1)c1ccc(Cl)cc1` (stereo not drawn), the GI50 is 11.2 µM and the TGI worked out at 25.9 µM.

On to `CNc1ccc(C(=O)CC(O)CCC(C)C2OC(=O)CC(O)CC(=O)CC(O)CC(O)CC(O)CC(O)CC3(O)CC(O)C(C(=O)OC)C(CC(O[C@@H]4O[C@H](C)[C@@H](O)[C@H](N)[C@@H]4O)/C=C/C=C/C=C/C=C/C=C/C=C/C=C/C2C)O3)cc1` (stereo partly drawn), for which the GI50 is 5.14 µM and the TGI turned out to be 25 µM.

Turning to `CCOC(=O)[C@@H](N)CCC(=O)N[C@@H](CSCc1ccccc1)C(=O)N[C@@H](C(=O)OCC)c1ccccc1`, the GI50 was 11.9 µM and the TGI was found to be 24.9 µM.

Regarding `COc1nc2ccccc2cc1-c1nc2c(cnn2-c2ccc(Br)cc2)c(=O)[nH]1`, the GI50 was 0.0219 µM and the TGI came out at 0.616 µM.

With `c1cc(CNC23CC4CC(CC(C4)C2)C3)cc(C[N+](Cc2cccc(CNC34CC5CC(CC(C5)C3)C4)c2)(Cc2cccc(CNC34CC5CC(CC(C5)C3)C4)c2)Cc2cccc(CNC34CC5CC(CC(C5)C3)C4)c2)c1` (stereo not drawn), the GI50 is 3.33 µM and the TGI was 7.03 µM.

Consider `COc1cc2ncnc(Nc3ccc(C)c(O)c3)c2cc1OC`, for which the GI50 was 2.39 µM and the TGI came to 8.87 µM.

Turning to `CN1CCN(CCCOc2ccc3nc(Nc4ccc(Cl)c(C(F)(F)F)c4)ccc3c2)CC1`, the GI50 is 12.2 µM and the TGI came out at 26.9 µM.

For `O=C1OC(C(O)CO)C(=O)C1=O` (stereo not drawn), the GI50 was 1810 µM and the TGI is 4350 µM.

Turning to `COC(=O)[C@@H](C)CNS(=O)(=O)N(c1cc(C(F)(F)F)cc(C(F)(F)F)c1)C1CCN(Cc2ccc(F)cc2)CC1`, the GI50 was 3.25 µM and the TGI turned out to be 15.3 µM.

As for `COC(=O)[C@H](C)NC(=O)NC(=O)NC(=O)CI`, the GI50 is 9.14 µM and the total growth inhibition concentration (TGI) is 23.5 µM.

Consider `C=C1C(=O)O[C@H]2[C@H]1CC/C(COC(=O)C(=O)c1cn(Cc3ccccc3)c3ccccc13)=C\CC[C@@]1(C)O[C@@H]21`, for which the GI50 was 1.88 µM and the TGI stood at 3.8 µM.

Turning to `CC(C)(C)c1cc(C(C)(C)C)cc(S(=O)(=O)Nc2cc3ccccc3cc2C(=O)NCCN)c1`, the GI50 is 1.85 µM and the TGI came out at 3.39 µM.

`CC(C)n1nc(-c2cc3cc(O)ccc3[nH]2)c2c(N)ncnc21`: the GI50 is 0.163 µM and the TGI was 1.01 µM.

In the case of `COc1ccc(-c2n[nH]nc2-c2cc(OC)c(OC)c(OC)c2)cc1`, the GI50 was under 0.01 µM and the total growth inhibition concentration (TGI) is under 0.01 µM.

`COc1ccccc1CNCCCN1C(=O)c2ccc3c4c(ccc(c24)C1=O)C(=O)N(CCCOCCCCOCCCN)C3=O`: the GI50 is 0.288 µM and the TGI was 1.32 µM.

Turning to `COc1ccc(Cn2cc3c(c2-c2ccccc2)CC(C)(C)c2cnoc2-3)cc1`, the GI50 is 0.542 µM and the TGI came out at 5.91 µM.

With `CN1CCN(Cc2ccc(NC(=O)c3cncc(C#Cc4cnc5ccc(O[C@@H]6CCOC6)nn45)c3)cc2C(F)(F)F)CC1`, the GI50 was 0.209 µM and the TGI stood at 0.834 µM.

For the compound `NS(=O)(=O)c1ccc(N=Nc2c(O)[nH]c3ccc(-c4cnco4)cc23)cc1`, the GI50 was over 25 µM and the TGI was over 25 µM.

`COc1cc2c(c(OC)c1OC)-c1ccc(OC)c(=O)cc1[C@@H](NC(=O)c1ccccc1)CC2`: the GI50 was 0.0552 µM and the total growth inhibition concentration (TGI) is over 100 µM.

On to `COc1cc2nc3cc([N+](=O)[O-])ccc3c(NCCCNCCO)c2cc1OC`, for which the GI50 is 0.193 µM and the total growth inhibition concentration (TGI) was 0.467 µM.

Consider `CN1C/C=C\CCOc2cccc(c2)-c2ccnc(n2)Nc2cccc(c2)C1`, for which the GI50 was 0.0642 µM and the TGI was 0.289 µM.

For the compound `C[C@@]12CC=C3c4nc(Nc5cccc(O)c5)sc4CC[C@]3(C)[C@H]1CC[C@]1(C)C(=O)CC[C@@H]21`, the GI50 was 2.29 µM and the TGI was found to be 5.21 µM.

In the case of `COc1cc(-c2ccc3c(c2)NC(=O)/C3=C\c2ccc[nH]2)ccc1O`, the GI50 is 0.179 µM and the TGI was over 50 µM.

`O=C(N/N=C/c1ccc(Cl)cc1)c1ccc(C(F)(F)F)nc1Nc1cccc(C(F)(F)F)c1`: the GI50 was 1.12 µM and the TGI stood at 4.28 µM.

In the case of `CN(C)C(=O)c1cc2cnc(Nc3ccc(-c4csc5c(=S)cc(N6CCOCC6)oc45)cc3)nc2n1C1CCCC1`, the GI50 is 0.397 µM and the TGI stood at 2.37 µM.

For the compound `O=C(NC1=CC(=O)c2ccccc2C1=O)c1ccccc1`, the GI50 was 1.08 µM and the TGI was determined as 2.41 µM.

For the compound `CCCCCCCC/C=C/CCCCCCCC(=O)OC[C@H]1O[C@@H](n2ccc(N)nc2=O)C(F)(F)[C@@H]1O`, the GI50 is under 0.0289 µM and the concentration for total growth inhibition (TGI) came out at 3.76 µM.

Consider `NC(=O)c1c(NC(=O)c2ccc(C(F)(F)F)cc2)sc2c1CCC(=O)C2`, for which the GI50 is 1.66 µM and the TGI came to 4.22 µM.
